One data set can be described thus: in vitro. It counts as in vitro ADME, rat. As to the method:
(§1) All in vitro Vmax values were scaled to microsomal or S9 protein content of rat liver using the following scaling factors: 45 mg microsomal protein per gram liver tissue and 125 mg S9 protein per gram liver tissue (Houston and Galetin [2008]). The scaled Vmax values were subsequently converted to Vmax in nmol/min/liver using the liver weight of 9.1 g, calculated from the body weight and fractional liver weight presented in Table 1. The Km in vitro was assumed equal to the Km in vivo.
(§2) The incubation mixtures consisted of (final concentrations) 0.1 mM potassium phosphate (pH 7.4), 5 mM MgCl2, 0.5 mg/ml rat liver microsomes or 2 mg/ml rat lung microsomes, and 1 mM NADPH in conical glass vials. […] The mixtures were incubated in a shaking water bath at 37 °C for 30 min. 20 µl ice-cold 10% (v/v) perchloric acid (HClO4) was added to terminate the reactions and the mixtures were put on ice for at least 15 min. Di-isopropyl ether (DIPE) was used to extract BaP and its metabolites from the incubation mixture. To this end, 1 ml DIPE was added to each incubation mixture, the tubes vortexed for 20 s and the upper layer was collected. Extraction was performed three times. Remaining DIPE was removed by evaporation under a stream of N2. Subsequently, extracts were re-dissolved in 100 µl methanol and transferred to UPLC vials for analysis.
The UPLC was equipped with a Photodiode Array (PDA) detector, recording wavelengths between 190 and 400 nm and a Phenomenex C18 column (Phenomenex, Torrance, California, United States). The column temperature was kept at 40 °C and the auto-sampler at 4 °C during analysis. The mobile phase consisted of Nanopure water containing 0.1% (v/v) trifluoroacetic acid (TFA) (A) and acetonitrile containing 0.1% (v/v) TFA (B) at a flow rate of 0.3 ml/min. The total run time was 23 min and 30 s, starting with 10% B for 30 s, increasing to 100% B in 15 min, maintaining this condition for 3 min before returning to the initial conditions of 10% B in 30 s. 10 µl of sample was injected per run. Under these conditions the metabolite 3-OHBaP, detected at 258 nm, eluted at 10.16 min. For the glucuronidated and sulfonated metabolite of 3-OHBaP, retention time and detection wavelength were 7.5 min, 303.3 nm and 7.4 min, 301 nm, respectively. The amounts of 3-OHBaP in the microsomal incubation sample and of glucuronidated and sulfated 3-OHBaP in the S9 incubation samples were quantified by integrating peak areas at their respective wavelengths using a calibration curve prepared with commercially available 3-OHBaP. To obtain the Vmax and Km the in vitro data for the substrate concentration-dependent rate of metabolite formation were fitted to the Michaelis–Menten equation using Graphpad Prism 9.0.1 for Windows (GraphPad Software, San Diego, California, USA).

The format of data set [1] is in vitro ADME. To be noted: rat, 30 min, pH 7.4. The method, then:
as §2
The UPLC was equipped with a Photodiode Array (PDA) detector, recording wavelengths between 190 and 400 nm and a Phenomenex C18 column (Phenomenex, Torrance, California, United States). […] Under these conditions the metabolite 3-OHBaP, detected at 258 nm, eluted at 10.16 min. […] The amounts of 3-OHBaP in the microsomal incubation sample and of glucuronidated and sulfated 3-OHBaP in the S9 incubation samples were quantified by integrating peak areas at their respective wavelengths using a calibration curve prepared with commercially available 3-OHBaP. […]

Another data set concerns F-344 rat. Briefly: In vivo reproductive toxicity of BaP (foetal survival), nasal inhalation. The settings on record: inhalation expressed as oral dose equivalent, data of Archibong et al. (2002). As to the method: Foetal survival, calculated as the fraction of live foetuses relative to the number of implantation sites reported in these studies, was taken as measure for in vivo reproductive toxicity. […] These oral dose equivalents in mg/kg bw were used for the comparison with model predicted dose–response data.
ED50 values were calculated for the predicted and reported dose–response data, using the non-linear regression with three parameters in Graphpad Prism version 9.0.1 for Windows (GraphPad Software, San Diego, California USA). The ED50 value was calculated for the fraction differentiated into beating cardiomyocytes for the predicted dose–response data. For the in vivo studies, foetus survival (number of live foetuses as fraction of total implantations) was used as response.

The next data set concerns Caco-2 cells. To be noted: cited from earlier work.
The conditions of data set [2]: rat, in vivo; cited from earlier work.
Data set [3] is described as follows: Glucuronidation of 3-OHBaP in incubations with rat liver S9. In kind it is in vitro ADME. As to the method:
as §1
(§3) Incubations with rat liver and lung S9 fractions were optimized to establish linearity over time and protein concentrations for the rate of glucuronidation and sulfation of 3-OHBaP. […]
Kinetics for 3-OHBaP glucuronidation, were quantified using incubations with pooled liver S9 fractions from male SD rats. […]
(§4) All incubation mixtures were pre-incubated for 1 min, after which the reaction was initiated by addition of 3-OHBaP in final concentrations ranging from 0.01 to 50 µM (glucuronidation) or 0.01–100 µM (sulfation) added from 100 times concentrated stock solutions in DMSO to reach the final volume of 200 µl (1% DMSO v/v). […] The supernatant was collected and analysed by Ultra Performance Liquid Chromatography (UPLC). […]

The nature of data set [4]: Sulfation of 3-OHBaP in incubations with rat liver S9. The settings on record: male, SD, pooled rat liver S9, pH 7.4. It counts as in vitro ADME. As to the method: as §1, §3
Hepatic sulfonation of 3-OHBaP was evaluated using pooled liver S9 fractions of male SD rats, in incubation mixtures with a final volume of 200 µl in conical glass vials containing (final concentrations) 0.1 mM Tris–HCl (pH 7.4), 0.1 mg/ml rat liver S9 and 0.2 mM PAPS.
as §4

Data set [5] can be described thus: PBK model prediction of 3-OHBaP blood concentrations in rat. The settings on record: intravenous; Marie et al. (2010). An excerpt: The conceptual PBK model for BaP consisted of separate compartments for venous blood, arterial blood, fat tissue, liver tissue, lung tissue, rapidly and slowly perfused tissue, stomach and intestines. 3-OHBaP is highly lipophilic. To prevent 3-OHBaP from partitioning into the fat tissue in the model simulations, it was essential to include a blood protein compartment in the model to allow binding of 3-OHBaP to blood protein. The unbound fraction of 3-OHBaP in the blood compartment was represented by the fub, in vivo, calculated as described in “Translating in vitro concentration–response data into in vivo dose–response data using PBK modelling-based reverse dosimetry” section. The fraction of 3-OHBaP bound to protein in the blood protein compartment (fb, in vivo) was calculated as 1 minus the fub, in vivo. […] Clearance of 3-OHBaP was assumed to result from hepatic and pulmonary conjugation (Cohen [1990]; Cohen and Moore [1976]). […]
For oral exposure, stomach emptying and intestinal transfer of the parent compound were included. […] The Papp, in vivo was calculated using the following equation: log (Papp, in vivo) = 0.6836 × log (Papp, Caco−2) − 0.5579 (Sun et al. [2002]) and applied in the model as described before (Zhang et al. [2018]). […]

The conditions of data set [6]: 3-OHBaP in rat blood, read-out: Cmax reported, cited from earlier work.
The next data set deals with ES-D3 cells. Details: method as in Kamelia et al. (2020). To be noted: without bioactivation; ref Kamelia et al. (2020); cited from earlier work.
The conditions of data set [7]: rat PBK model; ref Crowell et al. (2011); cited from earlier work.
Where [8] appears, read: formation of the metabolite from BaP, rat liver microsomes.

Like-named read-outs stand apart in the source and are kept apart here.

With `c1ccc2c(c1)cc1ccc3cccc4ccc2c1c34` [BaP, benzo[a]pyrene], in “in vitro” (rat, 30 min, pH 7.4), the Vmax is recorded as 0.16 nmol/min/mg microsomal protein and the “Vmax scaled to the whole liver” value is listed as 4.1 µmol/min/liver. Besides, in the data set “in vitro” (rat, pH 7.4, Km), the Km at 30 min was 34 µM. The “Rate of 3-OHBaP formation” value in data set [1] (200 µM) was 0.81 pmol/min/mg protein. Besides, in data set [1], the “Formation of 3-OHBaP in lung microsomes” value is given as “did not result in formation of detectable levels of 3-OHBaP”. Also, the “ED50 derived from reported in vivo dose-response data” value in the data set on F-344 rat amounted to 29 mg/kg bw per day. For the same compound, in the data set on Caco-2 cells, the “Log Papp, Caco-2” value was -5.42 and the “Papp, Caco-2” value is listed as 3.8 x1E-6 cm/sec. The “Blood concentration in maternal versus foetal blood” value in data set [2] is “similar”.
Regarding `O=C1C=Cc2ccc3c4c(ccc1c24)C(=O)c1ccccc1-3` [B[a]P-3,6-quinone], the Vmax in the data set “in vitro” (setting [8]) is 3.0 ± 0.5 pmol/min/mg microsomal protein.
As for `Oc1ccc2ccc3c4ccccc4cc4ccc1c2c43` [3-OHBaP, 3-hydroxybenzo[a]pyrene], the Vmax in the data set “in vitro” (setting [8]) was 162.2 ± 47.6 pmol/min/mg microsomal protein. In addition, the “Concentration at which substrate inhibition occurred” value in [3] (glucuronidation) was at least 50000 nM. Also, in data set [3] (male, SD, pooled rat liver S9, pH 7.4, glucuronidation of 3-OHBaP), the Km at 20 min was determined as 10 µM. Also, the Km at 70 min in [4] worked out at 17 µM. In data set [5], the “Cmax reported relative to predicted Cmax (fold higher)” value is given as 1.1 fold. Besides, the Cmax in data set [6] (intratracheal 10 mg/kg bw BaP, ref Moreau and Bouchard (2015)) was 140 nM. In addition, the Cmax in data set [6] (intravenous 10 mg/kg bw BaP, ref Marie et al. (2010)) is 720 nM. Moreover, the Cmax in [6] (intravenous 10 mg/kg bw BaP, ref Moreau and Bouchard (2015)) is 220 nM. For the same compound, the Cmax in [6] (oral 10 mg/kg bw BaP, ref Moreau and Bouchard (2015)) was 100 nM. In addition, the “Result in the EST” value in the data set on ES-D3 cells is given as “induces developmental toxicity”. Further, in data set [7], the “Tissue:blood partition coefficient, fat” value was 401; the “Tissue:blood partition coefficient, liver” value is recorded as 12.24; the “Tissue:blood partition coefficient, lung” value is 12.24; the “Tissue:blood partition coefficient, rapidly perfused tissue” value is 12.24. The “Tissue:blood partition coefficient, slowly perfused tissue” value in [7] was 6.43.
Take `O=C1C=Cc2ccc3c4c(ccc1c24)-c1ccccc1C3=O` [B[a]P-1,6-quinone]: the Vmax in the data set “in vitro” (setting [8]) is listed as 22.2 ± 3.2 pmol/min/mg microsomal protein.

The record behind these values is article PMC8448719 (Archives of Toxicology, 2021).
